Assay [1] relates to Hepatitis C virus. Briefly: Inhibition of Hepatitis C virus subtype 1b J4L6 NS5B Cdelta21 RNA dependent RNA polymerase after 60 mins by liquid scintillation counting analysis. Particulars: J4L6, 1 h.
Assay [2] has as its system Hepatitis C virus. Put plainly: Inhibition of Hepatitis C virus CON1 NS5B RNA dependent RNA polymerase after 2 hrs by scintillation counting analysis. On the set-up: species or system Hepacivirus hominis. Particulars: Con1, 2 h.

In turn, `COc1c2c(cc3c1C(C#CCOc1cc4c5c(oc4cc1C(C)(C)C)CCCC5)N(C)CC3)OCO2` (centres undefined) showed an IC50 in the assay on Hepatitis C virus [1] of 38 µM. In other words, the double-digit micromolar range.

Turning to `CCOC(=O)c1c(NC(=O)CSc2nnc3nc4[nH]c5ccccc5c4nn23)sc2c1CCN(C)C2`, the half-maximal inhibitory concentration (IC50) in the assay on Hepatitis C virus [1] stood at 46.3 µM. This IC50 and that of the compound before are within 1.5-fold of each other. In the assay with Hepatitis C virus [2], `CCOc1nc2cccc(C(=O)OC(C)OC(=O)OC3CCCCC3)c2n1Cc1ccc(-c2ccccc2-c2nn[nH]n2)cc1` (centres undefined) [CANDESARTAN CILEXETIL] displayed an IC50 of 14.2 µM and an IC90 of 28 µM.

By IC50 is commonly meant the concentration at which inhibition is half-maximal. High values mean lower potency, low ones higher potency. The IC90 is the point of the concentration-response curve where the effect stands at 90%.

The values above are taken from ChEMBL document CHEMBL2385044, “Inhibitors for the hepatitis C virus RNA polymerase explored by SAR with advanced machine learning methods” (Bioorg Med Chem, 2013).
